Measurements as given in patent US20090286803A1, “COMBINATION COMPRISING A) A PYRIMIDYLAMINOBENZAMIDE COMPOUND, AND B) A THR315LLE KINASE INHIBITOR” (priority 2006, published 2009).

Key:
[1] = test system: mutant forms of Bcr-Abl; conditions: 33 mutant forms evaluated
[2] = test system: Thr315lle Bcr-Abl; conditions: only mutant of the 33 not inhibited

## Cc1cn(-c2cc(NC(=O)c3ccc(C)c(Nc4nccc(-c5cccnc5)n4)c3)cc(C(F)(F)F)c2)cn1 [AMN107, 4-Methyl-3-[[4-(3-pyridinyl)-2-pyrimidinyl]amino]-N-[5-(4-methyl-1H-imidazol-1-yl)-3-(trifluoromethyl)phenyl] benzamide]
[1]
  mutant forms of Bcr-Abl inhibited, out of those currently evaluated: 32 of 33
[2]
  sensitivity of the Thr315lle mutant: resistant
